The data set can be described thus: Speciation / hydrolytic stability of POT solutions in 50 mM Na-citrate buffer pH 6.8 by 31P-NMR and 183W-NMR. Format: physicochemical. Particulars: for 31P-NMR spectrum 96 h after preparation compared with 48 h: for [P2W12]: signal at −8.3 ppm of hexalacunary anion; for Share of unidentified / unstable solution intermediates: 31P-NMR integrated POT signals, aged solutions; for Share of monolacunary [α2-P2W17O61]10− in solution, 48 h after preparation / Share of unchanged educt anion in solution, after 48 h / Share of unchanged educt anion in solution, fresh (1 h) / Share of monolacunary [α2-P2W17O61]10− in solution, fresh (1 h after preparation): 31P-NMR peak integration; for Share of free phosphate in solution: fresh and 48 h aged ([P2W15]), after rearrangement ([P2W12]). The method, then: The detailed structural information about species under the respective experimental conditions is essential for understanding of POT activity. […] The concentration of all species was calculated based on ^31P-NMR peaks integration. Since the stock solutions of each Wells–Dawson POT was used up to three days after preparation and ^183W-NMR acquisition takes 60 h, ^31P-NMR spectra for all four solutions have been recorded 1 h and 48 h after preparation to check if speciation changes occur over time. […] In the solution of intact POT one hour after preparation 12% of [α2-P^V2W^VI17O61]^10− was detected based on ^31P-NMR peaks integration (Fig. 3A), whereas 48 h after dissolution the concentration of monolacunary anion increased to 69%. […] The ^183 W-NMR spectra of monolacunary [P2W17]^10− (Fig. S8A) and trilacunary [P2W15]^12− (Fig. S8C) are in agreement with ^31P-NMR data confirming the presence of only the monolacunary anion by 9 signals. The ^31P-NMR spectrum of fresh hexalacunary POT [P2W12]^12− (Fig. 3D) points to the presence of unhydrolyzed hexalacunary [H2P^V2W^VI12O48]^12− (72%) together with a low amount of monolacunary [α2-P^V2W^VI17O61]^10− (20%). After 48 h, the signals corresponding to hexalacunary [H2P^V2W^VI12O48]^12− and monolacunary [α2-P^V2W^VI17O61]^10− decreased to 9% and 3%, respectively, while two intense signals at − 7.5 and − 9.5 ppm appeared. […] The signal at − 7.5 ppm corresponds to [P^V8W^VI48O184]^40−, which was previously detected in solutions with a high amount of NH 4^+[37]. The presence of four different POTs in [P2W12]^12− 48 h after preparation renders the detection of all species’ signals in the ^183W-NMR spectrum impossible due to their low concentrations and the low abundancy (14%) of the ^183W isotope (Fig. S8D). The most intense signals at -190.3, -191.6 and -211.3 ppm correspond to three types of W ions in cyclic [P^V8W^VI48O184]^40−[43]. ^31P-NMR spectra recorded 96 h after preparation are identical to those recorded after 48 h for [P2W18]^6−, [P2W17]^10− and [P2W15]^12−. […] In every ^31P-NMR analysis, peaks for free phosphate were observed, indicating the release of HxPO4^x−3 from the POT clusters as a consequence of partial decomposition or rearrangement (Fig. 3). The weak signals between − 12 and − 7 ppm in the ^31P-NMR spectra (Fig. 3) with a total amount of no more than 19% of all POT signals, correspond to solution intermediates of unknown identity that have been reported previously.
^183W-NMR and ^31P-NMR were recorded with a Bruker FT-NMR spectrometer Avance Neo 500 MHz (Bruker, Rheinstetten, Germany) at 25 °C. Chemical shifts were measured relative to 1 M Na2WO4 and 85% H3PO4. ^183W-NMR samples were prepared in 2.7 mL Na-citrate buffer (50 mM, pH 6.8) with a POT concentration of 2 mM with or without 1 mM L-DOPA and measured in 10 mm tubes. The experimental time was ca. 60 h, with a standard pulse program at 20.836 MHz and a 63° flip angle with 1 s relaxation delay. Subsequently, ^31P-NMR was measured at 202.53 MHz.
^183W-NMR was performed in 50 mM Na-citrate buffer at pH 6.8 to obtain insight into the chemical speciation and hydrolytic stability of POTs. The peaks of the ^183W-NMR for [P2W18]^6− are shifted by approx. 4–5 ppm downfield relative to the assignment in the literature (Table S2). The slight shifting can be explained by different buffer conditions and ionic strength of the solution with regard to the reference data.
The ^183W-NMR speciation indicates the presence of [α2-P^V2W^VI17O61]^10− anions in [P2W18]^6−, [P2W17]^10−, [P2W15]^12− at pH 6.8 (Figs. S8, S12). For the ^183W-NMR of [P2W18]^6− at pH 4 two lines (1:2) were assigned (Fig. S7), whereas for the same compound at neutral pH a mixture of [α-P^V2W^VI18O62]^6− (1:2) and [α2-P^V2W^VI17O61]^10− (2:2:2:2:1:2:2:2:2) was observed (Fig. S8). Also, the β-isomer was detected at pH 4 and pH 6.8, respectively (Figs. S7, S8). […]

[1] abbreviates: 31P-NMR, 50 mM Na-citrate pH 6.8.

Several values for one entry are separate records, joined by “and”; a condition that tells them apart may be missing. Equal values may be shown once.

As to “K10[α2-P^V2W^VI17O61]·20H2O [[P2W17]^10−]”, the “Dominant POT species at pH 6.8 in Na-citrate buffer” value (“Dominant POT species” for short) is “Hx[α2-P^V2W^VI17O61]^(10−x)−” and the “Stable in Na-citrate buffer at pH 6.8” value is “Yes”. Under “50 mM Na-citrate pH 6.8”, the “31P-NMR spectrum 96 h after preparation compared with 48 h” value is reported as “identical”; the “Share of unidentified / unstable solution intermediates” value is 8%; the “Share of monolacunary [α2-P2W17O61]10− in solution, 48 h after preparation” value (“Share of monolacunary … 48 h after preparation” below) stood at 92%; the “Influence of the substrate L-DOPA on the POT solution (reduction / speciation)” value (“Influence … (reduction / speciation)” below) is listed as “no change in speciation”.

For “K6[α/β-P^V2W^VI18O62]·14H2O [[P2W18]^6−]”, the “Dominant POT species” value is “Hx[α2-P^V2W^VI17O61]^(10−x)−” and the “Stable in Na-citrate buffer at pH 6.8” value was “No”. Moreover, under “50 mM Na-citrate pH 6.8”, the “31P-NMR spectrum 96 h after preparation compared with 48 h” value is listed as “identical”; the “Share of unidentified / unstable solution intermediates” value came to 9%; the “Share of monolacunary … 48 h after preparation” value was 69%; the “Share of unchanged educt anion in solution, after 48 h” value came to 15%. Besides, for the setting “50 mM Na-citrate pH 6.8”, the “Share of unchanged educt anion in solution, fresh (1 h)” value worked out at 88% and the “Influence … (reduction / speciation)” value is reported as “turned blue”. Where the note is “50 mM Na-citrate pH 6.8, listed as [α/β-P^V2W^VI18O62]^6−”, the “Share of monolacunary … 48 h after preparation” value was ~ 69%. Also, under “Na-citrate buffer pH 6.8, room temperature, 183W-NMR and 31P-NMR”, the “Sample composition after 28 days storage” value is given as “low amounts of the α-isomer were found, but no β-isomer was detected”.

Turning to “(NH4)12[H2P^V2W^VI12O48]·24H2O [[P2W12]^12−]”, the “Dominant POT species” value was “[H2P^V2W^VI12O48]^12− + Hx[α2-P^V2W^VI17O61]^(10−x)− + [P^V2W^VI19O69(H2O)]^14− + [P^V8W^VI48O184]^40−” and the “Stable in Na-citrate buffer at pH 6.8” value is listed as “No”. For the setting “50 mM Na-citrate pH 6.8”, the “31P-NMR spectrum 96 h after preparation compared with 48 h” value is reported as “disappeared completely”; the “Share of unidentified / unstable solution intermediates” value is 19%; the “Share of monolacunary … 48 h after preparation” value worked out at 3%; the “Share of monolacunary [α2-P2W17O61]10− in solution, fresh (1 h after preparation)” value (shortened to “Share of monolacunary … (1 h after preparation)”) stood at 20%. Also, where the note is “50 mM Na-citrate pH 6.8”, the “Share of unchanged educt anion in solution, after 48 h” value is 9%; the “Share of unchanged educt anion in solution, fresh (1 h)” value turned out to be 72%; the “Influence … (reduction / speciation)” value is “no change in speciation”. Further, under setting [1], the “Share of [P2W19O69(H2O)]14− in solution after 48 h” value came out at 22%, the “Share of [P8W48O184]40− in solution after 48 h” value was 23% and the “Share of free phosphate in solution” value is reported as 24%.

As for K12[P^V2W^VI15O56]·24H2O [[P2W15]^12−], the “Dominant POT species” value was “Hx[α2-P^V2W^VI17O61]^(10−x)−” and the “Stable in Na-citrate buffer at pH 6.8” value is listed as “No”. Under “50 mM Na-citrate pH 6.8”, the “31P-NMR spectrum 96 h after preparation compared with 48 h” value is reported as “identical”; the “Share of unidentified / unstable solution intermediates” value is 3% and 5%; the “Share of monolacunary … 48 h after preparation” value was 62% and 61%; the “Share of monolacunary … (1 h after preparation)” value came to 62%. Further, for the setting “50 mM Na-citrate pH 6.8”, the “Influence … (reduction / speciation)” value is on record as “no change in speciation”. The “Share of monolacunary … (1 h after preparation)” value (50 mM Na-citrate pH 6.8, listed as [P^V2W^VI15O56]^12−) is ~ 62%. Also, the “Share of free phosphate in solution” value under setting [1] is reported as 35%.
